Measured values as given in the CheMixHub ionic liquid set.

Test: xn = mol fraction of the nth substance listed

CCCCCCCCn1cc[n+](C)c1.O=[N+]([O-])[O-] + CCO
101 kPa
Conditions | viscosity [mPa·s]
283.15 K, x2 = 0.554 | 48.2
288.15 K, x2 = 0.357 | 162
288.15 K, x2 = 0.868 | 4.46
293.15 K, x2 = 0.455 | 59.7
293.15 K, x2 = 0.767 | 8.59
298.15 K, x2 = 0.767 | 7.54
303.15 K, x2 = 0.554 | 21.79
303.15 K, x2 = 0.767 | 6.47
313.15 K, x2 = 0.767 | 4.99
318.15 K, x2 = 0.128 | 112
318.15 K, x2 = 0.357 | 39.8
318.15 K, x2 = 0.455 | 21.77
328.15 K, x2 = 0.128 | 53.6
328.15 K, x2 = 0.357 | 23.9
328.15 K, x2 = 0.554 | 9.29

CCCCCCCCn1cc[n+](C)c1.O=[N+]([O-])[O-] + CCCO
101 kPa
Conditions | viscosity [mPa·s]
288.15 K, x2 = 0.258 | 356
288.15 K, x2 = 0.556 | 52
293.15 K, x2 = 0.47 | 75.4
293.15 K, x2 = 0.556 | 42.1
293.15 K, x2 = 0.671 | 19.89
298.15 K, x2 = 0.866 | 5.08
303.15 K, x2 = 0.258 | 147
303.15 K, x2 = 0.364 | 78.7
308.15 K, x2 = 0.556 | 24.01
313.15 K, x2 = 0.47 | 32.9
313.15 K, x2 = 0.671 | 10.83
318.15 K, x2 = 0.258 | 65.9
318.15 K, x2 = 0.671 | 9.5
328.15 K, x2 = 0.556 | 11.56

CCCC[n+]1ccn(C)c1.O=S(=O)([O-])C(F)(F)F + O
Conditions | viscosity [mPa·s]
343.15 K, 101 kPa, x2 = 0.1939 | 10.55

CCCCCCCCCCCCCC[P+](CCCCCC)(CCCCCC)CCCCCC.O=S(=O)([N-]S(=O)(=O)C(F)(F)F)C(F)(F)F + COCCOCCOCCOCCOC
viscosity [mPa·s], 100 kPa
Conditions | 278.15 K | 283.15 K | 288.15 K | 293.15 K | 298.15 K | 303.15 K | 313.15 K | 323.15 K
x2 = 0.191 | 589 | 414 | 299 | 221 | 168 | 130 | 83 | 60
x2 = 0.366 | 281 | 207 | 157 | 121 | 96 | 77 | 52 | –
x2 = 0.559 | 111 | 85 | 67 | 54 | – | – | – | –
x2 = 0.664 | 64 | 51 | – | – | – | – | – | –

[Cl-].[Cl-].[Co+2] + CCCCCCCC[N+](CCCCCCCC)(CCCCCCCC)CCCCCCCC.[Br-] + CCCCCCCCCC(=O)O
Conditions | viscosity [mPa·s]
296.1 K, 101.3 kPa, x2 = 0.4, x1 = 0.2 | 55000

CCCCCCCCn1cc[n+](C)c1.F[B-](F)(F)F + CCCOC(C)=O
298.15 K, 101 kPa
Conditions | viscosity [mPa·s]
x2 = 0.3984 | 44.84
x2 = 0.4496 | 33.85
x2 = 0.5551 | 18.72

CCCC[n+]1ccn(C)c1.O=S(=O)([O-])C(F)(F)F + CCCCO
viscosity [mPa·s], 100 kPa
Conditions | x1 = 0.1091 | x1 = 0.2147 | x1 = 0.2908 | x1 = 0.4008 | x1 = 0.5123 | x1 = 0.5928 | x1 = 0.6991 | x1 = 0.8056 | x1 = 0.9078 | x1 = 1
298.15 K | 3.69 | 6.2 | 8.9 | 14.2 | 20.6 | 26 | 35.4 | 47.6 | 63 | 82
303.15 K | 3.24 | 5.1 | 6.9 | 11.5 | 17.5 | 22.6 | 30.2 | 38.8 | 51 | 67
308.15 K | 2.87 | 4.45 | 6 | 11 | 15.3 | 19.3 | 25.4 | 32 | 40.6 | 53
313.15 K | 2.55 | 3.93 | 5.3 | 9.5 | 13.6 | 16.9 | 21.6 | 27.2 | 34.7 | 43.7
318.15 K | 2.27 | 3.48 | 4.68 | 7.9 | 11.2 | 13.8 | 17.8 | 22.6 | 28.5 | 36.3
323.15 K | 2.04 | 3.11 | 4.17 | 7.2 | 10.1 | 12.4 | 15.8 | 19.3 | 24.4 | 30.6
